Test results from patent US20060182722A1, “Methods and materials for isolating isogenic islet cells” (priority 2005, published 2006).
Several values for one entry are separate records, joined by “and”; a condition that tells them apart may be missing. Equal values may be shown once. Values belong to the molecule of their own block, whether it stands above or below them.

Experiments:
[1] = Example 3: immunosuppressant whole blood trough levels; format: in vivo, human; conditions: for Drug Exposure: whole blood trough levels, individual recipients #1-#8
Method: Maintenance immunosuppression was initiated with sirolimus (0.2 mg/kg starting on day −2, followed by 0.1 mg/kg daily; target whole blood trough levels 5 to 15 ng/mL, as tolerated), and reduced-dose tacrolimus (0.015 mg/kg twice daily, starting on day +1; target whole blood trough levels 3 to 6 ng/mL). At 1 month posttransplant, tacrolimus was gradually replaced with mycophenolate mofetil (MMF; 750 to 1000 mg, twice daily); tacrolimus was either discontinued or dosed to a target trough level of <3 ng/mL. If target levels of sirolimus could not be achieved or maintained, however, tacrolimus (target level, 3 to 6 ng/mL) was continued.
The 5 recipients received daily MMF doses of 1.5 to 2.0 g. They either (a) achieved and maintained sirolimus trough levels >9 ng/mL, with tacrolimus trough levels of 0 to <3 ng/mL, or (b) in the absence of target sirolimus trough levels, tacrolimus trough levels of 3 to 6 ng/mL. The 3 recipients who resumed exogenous insulin therapy had received ≧1.5 g/day of MMF but had subtherapeutic sirolimus trough levels (<9 ng/mL) in the absence of measurable tacrolimus trough levels (<3 ng/mL). Please see Table 5 for immunosuppression.

[2] = Example 4: sirolimus whole blood trough concentration; format: in vivo, human
Method: Immunosuppression. […] On days 0 through +9 posttransplant, they received a daily 4-mg dose. […] The doses were based on those previously used to treat kidney graft rejection (Woddle et al., Transplantation 1999; 68:608-616). Premedication was with acetaminophen, diphenhydramine, and pentoxifylline. Sirolimus (Rapamune, Wyeth-Ayerst) was initiated orally at a dose of 0.2 mg/kg on day −2, followed by 0.1 mg/kg daily; the dose then was titrated and adjusted to achieve a target whole blood trough level of 5 to 10 ng/mL. Mean trough concentration prior to transplant on day 0 was 6.1±1.7 ng/mL and on day +2 was 6.7±1.9 ng/mL. Reduced-dose tacrolimus (Prograf, Fujisawa) was administered orally to all islet recipients beginning on […] posttransplant at 0.015 mg/kg 2 times per day; the dose was then adjusted to achieve a target whole blood trough level of 3 to 6 ng/mL (Shapiro et al., New Engl. J. Med. 2000; 343:230-238).

[3] = Anti-idiotype antibodies by ELISA; format: in vivo, human; conditions: all recipients treated
Description: (§1) Monitoring hOKT3γ1 (Ala-Ala). Flow cytometry was used to enumerate CD2^+, CD4^+, CD8^+, CD25^+, and CD69^+ T cells. […] Anti-idiotype antibodies were identified by ELISA, by the use of plate-bound OKT3, or by flow cytometry, in order to measure the blockade of binding of OKT3 fluorescein isothiocyanate to CD3 (Chatenoud, Transplant Proc. 1993; 25:68-73).

[4] = system: autoreactive and alloreactive T cell responses; conditions: clinical; cited from earlier work
[5] = Monitoring hOKT3γ1 (Ala-Ala): serum levels; format: in vivo, human; conditions: table: individual subjects #1-#6, text: mean; for Peak hOKT3γ1 (Ala-Ala) level achieved: serum
Description: as §1

CD3 = target: T1, CD3 (Homo sapiens, UniProt P07766); test: Monitoring hOKT3γ1 (Ala-Ala): coating of the CD3 molecule on PBLs; format: in vivo; conditions: table: individual subjects #1-#6, text: mean
T1 construct: endogenous in cells; host or cells: peripheral blood lymphocytes (PBLs) of the treated patients
T1 sequence (P07766 23-207): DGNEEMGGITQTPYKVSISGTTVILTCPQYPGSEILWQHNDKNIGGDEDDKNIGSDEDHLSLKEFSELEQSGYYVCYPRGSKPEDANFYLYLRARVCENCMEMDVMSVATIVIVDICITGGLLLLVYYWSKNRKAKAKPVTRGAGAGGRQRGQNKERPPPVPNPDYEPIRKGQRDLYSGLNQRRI
T1 sequence (P09693 23-182 partner): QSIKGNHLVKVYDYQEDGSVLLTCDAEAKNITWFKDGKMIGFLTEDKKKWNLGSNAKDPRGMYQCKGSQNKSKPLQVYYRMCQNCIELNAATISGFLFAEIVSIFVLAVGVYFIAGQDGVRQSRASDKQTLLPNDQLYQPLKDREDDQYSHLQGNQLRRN
T1 sequence (P04234 22-171 partner): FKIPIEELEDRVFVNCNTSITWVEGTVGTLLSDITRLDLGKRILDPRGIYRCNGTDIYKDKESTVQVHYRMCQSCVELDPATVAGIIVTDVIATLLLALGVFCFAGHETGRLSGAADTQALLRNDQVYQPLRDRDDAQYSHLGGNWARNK
T1 sequence (P20963 22-164 partner): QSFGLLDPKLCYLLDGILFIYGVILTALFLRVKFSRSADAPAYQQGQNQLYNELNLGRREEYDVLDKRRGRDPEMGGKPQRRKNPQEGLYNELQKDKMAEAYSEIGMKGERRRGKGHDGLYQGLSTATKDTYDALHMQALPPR
Description: as §1

[6] = system: serum cytokines (IL-10, TNF-α); test: Serum cytokines before and after hOKT3γ1 (Ala-Ala); format: in vivo, human
T1D patients = test: Example 4: safety assessments; set-up: species or system human; conditions: in vivo
Description: Safety assessments. Recipients underwent clinical, laboratory, and diagnostic safety assessments. Daily during their transplant hospitalization and at each of their 23 posttransplant study visits, the severity and duration of any adverse events were monitored and recorded. Laboratory tests included hematology, chemistry, liver transaminases, lipids, standard creatinine clearance, and urinary albumin excretion. Adverse events were graded based on the National Cancer Institute's Common Toxicity Criteria, Version 2.0.

[7] = system: type 1 diabetic recipients; test: Example 3: safety assessments; format: in vivo, human; conditions: of 8 recipients; resolved or improved with dose reduction
Method: Safety was assessed by monitoring the severity and duration of adverse events. Efficacy was assessed by studying the recipients' insulin requirements, C-peptide levels, oral and intravenous glucose tolerance results, intravenous arginine stimulation responses, and HbA1c levels. Safety Assessments. Recipients underwent clinical, laboratory, and diagnostic safety assessments daily during their transplant hospitalization and at each of their 19 posttransplant study visits. Portal pressure was monitored during the transplant procedure. On days +1 and +7, ultrasonographic examination was done of the right upper quadrant including Doppler examination of the portal venous system. The severity and duration of any adverse events were monitored and recorded. Laboratory tests assessed hematology, chemistry, liver transaminases, lipids, standard creatinine clearance, and urinary albumin excretion. Adverse events were graded per the National Cancer Institute's Common Toxicity Criteria, Version 2.0.

[8] = the 3 recipients who resumed exogenous insulin therapy

Trough levels ([1]; recipients with sustained insulin independence, case (a)): > 9 ng/mL
Trough levels [1, 8]: < 9 ng/mL
Mean trough concentration ([2]; day +2): 6.7 ± 1.9 ng/mL
Mean trough concentration ([2]; prior to transplant on day 0): 6.1 ± 1.7 ng/mL
Molecule: CO[C@H]1C[C@@H]2CC[C@@H](C)[C@@](O)(O2)C(=O)C(=O)N2CCCC[C@H]2C(=O)O[C@H]([C@H](C)C[C@@H]2CC[C@@H](O)[C@H](OC)C2)CC(=O)[C@H](C)/C=C(\C)[C@@H](O)[C@@H](OC)C(=O)[C@H](C)C[C@H](C)/C=C/C=C/C=C/1C [Sirolimus, sirolimus]
Drug Exposure [1]: 4-8 ng/ml and >9 ng/ml (3×) and 2-3 ng/ml and 7-9 ng/ml and 4-9 ng/ml and 6-8 ng/ml

Trough levels [1, 8]: < 3 ng/mL
Molecule: C=CC[C@@H]1/C=C(\C)C[C@H](C)C[C@H](OC)[C@H]2O[C@@](O)(C(=O)C(=O)N3CCCC[C@H]3C(=O)O[C@H](/C(C)=C/[C@@H]3CC[C@@H](O)[C@H](OC)C3)[C@H](C)[C@@H](O)CC1=O)[C@H](C)C[C@@H]2OC [Tacrolimus, tacrolimus]
Drug Exposure [1]: 0 ng/ml (2×) and 4-5 ng/ml and 4-6 ng/ml and <3 ng/ml and 3 ng/ml

Duration >80% CD3 coating (Total # of days) (CD3): 4.8 ± 2.6 days
Time to 80% CD3 coating (# of days) (CD3): 7.3 ± 2.9 days
Molecule: hOKT3γ1 (Ala-Ala): humanized anti-CD3 antibody retaining the binding region of OKT3; human IgG1 Fc mutated to prevent binding to the Fc receptor
Anti-idiotype antibodies [3]: Absence of anti-idiotype antibodies
Kidney graft rejection [4]: reversed kidney graft rejection
Side effects compared with the parental OKT3 antibody [4]: markedly fewer side effects
Peak hOKT3γ1 (Ala-Ala) level achieved [5]: 1196 ± 821 ng/mL
Peak hOKT3γ1 (Ala-Ala) level achieved ([5]; listed as hOKT3γ1 (Ala—Ala)): 872 ng/mL and 450 ng/mL and 1028 ng/mL and 736 ng/mL and 2761 ng/mL and 1330 ng/mL
Days to negative hOKT3γ1 (Ala-Ala) level after last dose [5]: 61 ± 32 days
Days to negative hOKT3γ1 (Ala-Ala) level after last dose ([5]; listed as hOKT3γ1 (Ala—Ala)): 91 days and 111 days and 47 days and 50 days and 33 days and 34 days
Duration >80% CD3 coating (Total # of days) (CD3; listed as hOKT3γ1 (Ala—Ala)): 4 days (2×) and 3 days and 2 days and 8 days (2×)
Time to 80% CD3 coating (# of days) (CD3; listed as hOKT3γ1 (Ala—Ala)): 9.5 days and 8.5 days and 11.5 days and 4.5 days (2×) and 5.5 days
Mean peak serum TNF-α after administration ([6]; 29.9±31.7 pg/mL prior to administration): 267.6 ± 120.3 pg/mL
Serum IL-10 levels after administration compared with pre-dosing levels ([6]; all participants): increased in all participants

Molecule: C[C@@H]1[C@H](O)[C@@H](C)/C=C/C=C/CC/C=C/C=C/C=C/C=C/C(O[C@H]2O[C@H](C)[C@@H](O)[C@H](N)[C@@H]2O)CC2O[C@](O)(CC(O)C(O)CCC(O)CC(O)CC(O)CC(=O)O[C@H]1C)CC(O)C2C(=O)O (stereo partly shown) [nystatin]
Serious adverse event determined to be related to treatment (T1D patients): generalized rash

Molecule: COc1c(C)c2c(c(O)c1C/C=C(\C)CCC(=O)OCCN1CCOCC1)C(=O)OC2 [MMF, mycophenolate mofetil]
Recipients with transient diarrhea after beginning MMF therapy [7]: 6
